Results from patent publication US6518261B2, “Use of eugenol in combination with other chemopreventative agents as prophylaxis for cancers” (Oncology Sciences Corporation, priority 2000, dated 2003).

Assays:
LNCaP cells = experiment: Cell growth by trypan blue exclusion cell counting, confirmed by cell proliferation assay kit; format: cell-based, human; conditions: 72 hours of treatment, FIG. 2
Experimental: These cells were treated with different concentrations of eugenol (0.5, 1, 3, 5 and 10 mM). Cell growth was monitored every 24 hours by counting the increase in the cell number using trypan blue exclusion assay.
Cells were treated with either eugenol (0.25, 0.5, 0.75 or 1 mM) or 2-ME (0.5, 1, 2 or 3 mM) or both (0.25, 0.5, 0.75 or 1 mM of eugenol along with 0.5 mM of 2-ME). Cell growth was measured following 72 hours of treatment as described above.

suspect cells = experiment: Cell cycle analysis; format: cell-based; conditions: cell cycle analysis data
Source text: Therefore induction of cell death pathway by 2-ME and growth inhibition by eugenol through a different pathway presents a tremendous new weapon for use in preventing and combating cancer.

| Compound | inhibition of growth of LNCaP cells (LNCaP cells; 0.25 mM of eugenol) | effect on cell cycle profile / mechanism of growth inhibition (suspect cells) | inhibition of growth of LNCaP cells (LNCaP cells; 0.5 mM of 2-ME) |
| --- | --- | --- | --- |
| C=CCc1ccc(O)c(OC)c1 [eugenol] | about 30% | without any significant alterations in the cells cycle profile |  |
| COc1cc2c(cc1O)CC[C@@H]1[C@@H]2CC[C@]2(C)[C@@H](O)CC[C@@H]12 [2-ME, 2-methoxyestradiol] |  | inducing apoptosis and blocking cells in G2/M phase | about 20% |
